Read-outs that look alike come from different tables or passages of the source. Marks after values point to notes of the source that are not given here.
Tests used:
GABAA receptor [1] = system: GABAA receptor; parameters: method as in Kim et al., 2000; details: i.c.v. infusion 1 pmol/10 μL/h for 7 days; cortex and CA3 sub-region of the hippocampus; ref Kim et al., 2000; cited from earlier work
mice = system: mice; parameters: method as in Hashimoto et al. (2007); details: ref Hashimoto et al. (2007), cited from earlier work; for effect on deficits in OR performance: repeated administration
Long-Evans rats [2] = system: Long-Evans rats; parameters: method as in Redrobe et al., 2012; details: same subPCP model; ref Redrobe et al., 2012; cited from earlier work
GABAB receptor = molecular target: T1, GABAB receptor (Rattus norvegicus, UniProt Q9Z0U4); test: Ex vivo autoradiography, GABAB receptor saturation binding ([3H]CGP54626), medial prefrontal cortex; details: rat medial prefrontal cortex; for GABAB receptors Bmax: [3H]CGP54626
T1 construct: 12 μm coronal sections were collected from an area ranging from approximately +4.2 mm to +2.3 mm anterior to Bregma; from tissue; host or cells: rat brain cryosections, medial prefrontal cortex (prelimbic and infralimbic)
T1 sequence (Q9Z0U4 17-960 limits assumed): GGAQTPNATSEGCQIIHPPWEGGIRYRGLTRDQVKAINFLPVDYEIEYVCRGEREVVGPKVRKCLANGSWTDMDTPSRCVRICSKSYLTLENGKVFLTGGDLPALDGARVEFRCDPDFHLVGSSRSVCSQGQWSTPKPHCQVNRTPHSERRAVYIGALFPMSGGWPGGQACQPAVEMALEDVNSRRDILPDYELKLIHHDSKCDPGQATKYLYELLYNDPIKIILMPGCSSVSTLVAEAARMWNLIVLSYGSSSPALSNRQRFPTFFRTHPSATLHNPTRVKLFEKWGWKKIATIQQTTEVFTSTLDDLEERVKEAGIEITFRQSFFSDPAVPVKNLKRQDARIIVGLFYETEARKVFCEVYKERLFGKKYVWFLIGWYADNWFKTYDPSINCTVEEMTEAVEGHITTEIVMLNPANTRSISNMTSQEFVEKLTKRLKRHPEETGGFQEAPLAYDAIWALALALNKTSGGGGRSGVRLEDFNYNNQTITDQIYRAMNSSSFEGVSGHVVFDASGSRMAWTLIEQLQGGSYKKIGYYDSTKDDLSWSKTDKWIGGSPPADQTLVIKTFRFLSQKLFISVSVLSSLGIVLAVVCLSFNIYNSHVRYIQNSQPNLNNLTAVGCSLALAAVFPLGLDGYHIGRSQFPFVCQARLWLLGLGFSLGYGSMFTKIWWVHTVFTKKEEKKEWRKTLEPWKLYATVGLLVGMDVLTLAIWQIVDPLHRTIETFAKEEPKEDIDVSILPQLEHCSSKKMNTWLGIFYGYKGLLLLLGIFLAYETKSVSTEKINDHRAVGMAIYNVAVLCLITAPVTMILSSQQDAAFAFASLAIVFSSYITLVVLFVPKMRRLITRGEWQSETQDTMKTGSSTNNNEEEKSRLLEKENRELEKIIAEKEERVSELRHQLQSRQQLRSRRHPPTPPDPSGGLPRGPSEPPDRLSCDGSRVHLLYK
T1 sequence (O88871 41-940 partner): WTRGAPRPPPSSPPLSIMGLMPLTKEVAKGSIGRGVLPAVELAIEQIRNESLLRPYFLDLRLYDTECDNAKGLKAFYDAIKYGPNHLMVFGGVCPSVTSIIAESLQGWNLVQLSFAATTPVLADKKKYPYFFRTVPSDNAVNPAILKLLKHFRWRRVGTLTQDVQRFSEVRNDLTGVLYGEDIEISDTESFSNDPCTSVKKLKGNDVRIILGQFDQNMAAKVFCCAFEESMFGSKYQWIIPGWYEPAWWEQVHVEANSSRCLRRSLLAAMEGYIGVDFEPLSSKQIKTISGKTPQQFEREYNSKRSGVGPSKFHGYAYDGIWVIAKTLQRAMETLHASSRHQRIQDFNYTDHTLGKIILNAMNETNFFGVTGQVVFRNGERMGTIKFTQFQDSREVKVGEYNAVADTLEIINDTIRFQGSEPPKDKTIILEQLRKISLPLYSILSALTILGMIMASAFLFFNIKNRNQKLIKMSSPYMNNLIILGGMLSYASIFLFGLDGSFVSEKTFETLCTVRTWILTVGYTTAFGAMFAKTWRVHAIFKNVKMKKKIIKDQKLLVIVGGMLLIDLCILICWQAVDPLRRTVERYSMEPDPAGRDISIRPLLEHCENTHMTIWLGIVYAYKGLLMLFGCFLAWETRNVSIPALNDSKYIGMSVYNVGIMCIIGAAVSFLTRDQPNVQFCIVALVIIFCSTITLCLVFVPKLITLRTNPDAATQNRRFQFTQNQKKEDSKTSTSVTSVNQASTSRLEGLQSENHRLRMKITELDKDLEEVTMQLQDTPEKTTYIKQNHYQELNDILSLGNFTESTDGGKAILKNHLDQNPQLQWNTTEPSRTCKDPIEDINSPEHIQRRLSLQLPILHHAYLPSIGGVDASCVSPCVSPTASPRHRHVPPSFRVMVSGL
Source text: (§1) Rats used in ex vivo autoradiography (EVA) experiments were randomly assigned to one of four experimental groups characterized by either subchronic saline or PCP (as described above) along with either vehicle or vortioxetine-infused food (1.8 g vortioxetine/kg food weight, as described in the attentional set shifting task). On day 8 of PCP withdrawal, rats were anesthetized using CO2 and killed by decapitation. Brains were quickly and gently removed from the skull, flash frozen on powdered dry ice, and stored at -20°C until sectioning. Later, 12 μm coronal sections were collected from an area ranging from approximately +4.2 mm to +2.3 mm anterior to Bregma ([Paxinos and Watson, 1998]) using a cryostat (MicroM, Germany) and were thaw-mounted on glass microscope slides. This range of coronal slices was chosen in order to study the prelimbic and infralimbic subregions of the medial prefrontal cortex, given the importance of these regions in tests of executive function such as the attentional set shifting task ([Ng et al., 2007]). After the tissue mounted on the microscope slides had dried thoroughly (in order to reduce damage from freezing), slides were packed into slide boxes with desiccator pellets, and stored at -20°C for use in EVA saturation binding and competition experiments.
(§2) Each of the EVA procedures used in this study are variations on a similar theme. On the day of an experiment, slide-boxes were defrosted under a constant stream of air at room temperature until the boxes were dry and equilibrated with the environment in terms of temperature. This step was undertaken in order to ensure brain tissue was not damaged by frosting due to a sudden change in humidity. Prior to any binding experiments, slides were preincubated in the appropriate preincubation buffer and dried at room temperature. Subsequently, tissue was incubated in an assay buffer containing a radioligand appropriate for the receptor of interest, then rinsed in assay buffer, and dried overnight in a vacuum desiccator. Specific information on the contents of the preincubation buffers, assay buffers and other assay conditions are listed in Table 2. Finally, slides were opposed to a tritium-sensitive phosphor screen (Fuji imaging plate, GE Healthcare, Pittsburgh, PA, United States) for 5 days before being read in a phosphorimager (Typhoon FLA7000, GE Healthcare). Analysis methods are listed below under statistical analyses.
(§3) In saturation binding experiments, the concentration of the relevant radioligand in the assay buffer was systematically varied in order to determine the KD and Bmax of the receptor in question. At each radioligand concentration, the non-specific binding was determined on a separate slide by including a high concentration of a non-radioactive competitor ligand in the assay buffer along with the radioligand. For GABAA receptor saturation binding experiments, [^3H]muscimol was examined in quarter log steps ranging from 0.56 to 300 nM. For GABAB receptor saturation binding experiments, [^3H]CGP54626 was examined in quarter log steps ranging from 0.17 to 100 nM.
For saturation binding studies, the primary dependent measures were pKD and Bmax. First, a standard curve was generated by measuring optical intensity from a slide of tritium standards (American Radiolabeled Chemicals, St. Louis, MO, United States) included in the slide cassette during exposure. A linear regression was performed to determine the relationship between intensity and bound radioactivity (measured on the standards in units of μCi/g). Next, average intensity values from the non-specific bound condition for each concentration of radioligand was subtracted from intensity values from the total bound condition to produce a measure of specific binding for each radioligand concentration. These optical intensity values were transformed into bound radioactivity (expressed as nCi/mg) measurements by interpolation from the standard curve noted above. […]

GABAA receptor [3] = test: Ex vivo autoradiography, GABAA receptor saturation binding ([3H]muscimol), medial prefrontal cortex; parameters: species or system rat; details: rat medial prefrontal cortex
Source text: as §1, §2, §3
For saturation binding studies, the primary dependent measures were pKD and Bmax. […] A linear regression was performed to determine the relationship between intensity and bound radioactivity (measured on the standards in units of μCi/g). […] These optical intensity values were transformed into bound radioactivity (expressed as nCi/mg) measurements by interpolation from the standard curve noted above. […]

sigma 1 receptors = molecular target: sigma 1 receptors; parameters: method as in Sanchez et al., 2003; details: ref Sanchez et al., 2003; cited from earlier work
Long-Evans rats [4] = test: Attentional set-shifting task (AST) in subchronic PCP-treated rats; assay type: in vivo, rat; details: for trials to criterion vs vehicle/vehicle or PCP/vehicle, EDR discrimination / trials to criterion vs PCP/vehicle, ED discrimination: subPCP-treated rats
Protocol: Subchronic PCP treatment: The subPCP administration regimen used in rats was conducted as described in ([Goetghebeur and Dias, 2009]), which is a reliable method for inducing deficits in our hands. Rats in the subPCP experiments received injections of 5 mg/mL PCP or vehicle (saline) s.c. at a 1 mL/kg injection volume twice per day for 7 days. […] The mouse subPCP regimen was conducted as described in [Pedersen et al. (2014)]. Briefly, mice received vehicle or PCP (1.3 mg/mL concentration, 10 mL/kg injection volume) s.c once per day for 14 days followed by a 7-day washout prior to experimentation.
Each test used male Long-Evans rats (Charles River, United States) aged 5–6 weeks when arriving at the research facility.
The attentional set-shifting test (AST) methods used here were adapted from [Goetghebeur and Dias (2009)]. The apparatus used for the AST test was a 44 cm × 64 cm × 30 cm black non-transparent Perspex test box, divided into 3 equal-sized areas (a starting area separated from a choice area subdivided in two). In the choice area, two 11 cm diameter terracotta pots were placed recessed into the box floor (with a 2 cm lip remaining above the floor) and separated by a divider. Odor (oils from The Body Shop®, United Kingdom) and media cues (not previously presented to the rats) were added to the pots.
Beginning on day 3 after the cessation of PCP administration, rats were subjected to a habituation period and trained to dig for a diet reward (half a Honey Loop cereal, Nestlé®) in terracotta pots filled with sawdust. On day 7 of PCP washout, rats were subjected to a single training session in which they were required to discriminate between two pots in order to find the reward. These discriminations were either based on differences in the digging media or the pot’s odor. On day 8 rats were presented with a series of increasingly difficult discriminations: a simple discrimination (SD), a compound discrimination (CD), two intra-dimensional shifts (ID1, ID2), an intra-dimensional shift reversal (ID2R), an extra-dimensional shift (ED) and an extra-dimensional shift reversal (EDR; see Table 1). Rats were required to meet a training criterion before moving on to a new discrimination type (for specifics, see Statistical Analysis, below).
The first trial of each discrimination stage was a discovery trial in which rats were allowed to dig in both pots, and to self-correct if digging in the wrong pot. Rats were only given one discovery trial. The discovery trial was included in the trials to criterion if the rat dug first in the correct pot, but not if the rat self-corrected an incorrect initial dig.
In the acute vortioxetine study, prior to the start of behavioral experiments on Day 8 of washout from PCP treatment, animals were randomly administered either 20% CD (Veh), […], or 64 mg/kg modafinil 30 min p.o. as described above (included as a positive control). Thus, the treatment groups in the acute vortioxetine study were as follows: Veh/Veh, PCP/Veh, PCP/1 mg/kg vortioxetine, PCP/3 mg/kg vortioxetine, PCP/10 mg/kg vortioxetine, or PCP/64 mg/kg modafinil.
Food dosing lasted from the first day of sub-chronic PCP administration and until the last day of the washout period (total of 14 days). After the end of the washout period where behavioral testing started, rats were fed with the same conditioned diet, however, under food restriction (∼11 g of diet per day per rat). In addition, some PCP-treated animals were fed vehicle food, but received acute injections of either 10 mg/kg vortioxetine, or 64 mg/kg modafinil, as described above. The treatment groups for the subchronic vortioxetine administration study were as follows: Veh/Veh, PCP/Veh, PCP/0.22 g/kg vortioxetine food, PCP/1.8 g/kg vortioxetine food, PCP/10 mg/kg vortioxetine 1 h s.c., or PCP/64 mg/kg 30 min p.o.
A third experiment was conducted to examine the effects of acute SERT inhibition or 5-HT3 receptor antagonism on subPCP-induced AST impairments. […]

SERT = details: ref Pehrson et al., 2015; cited from earlier work
[5] = acute vortioxetine study, 64 mg/kg 30 min p.o., vs PCP/Veh
[6] = subchronic vortioxetine study, acute 64 mg/kg, p < 0.001

SMILES: C[C@]12N[C@H](Cc3ccccc31)c1ccccc12 [MK-801]
- GABAA receptor binding ([3H]-muscimol, [3H]-flunitrazepam) (GABAA receptor [1]): significant increase

SMILES: CCCN(CCC)CCc1ccc(OC)c(OCCc2ccccc2)c1 [NE-100]
- effect on fluvoxamine's reversal of OR deficits (mice; sigma1 receptor antagonist given with fluvoxamine): blocked this effect

SMILES: FC(F)c1ncn2c1Cn1ncnc1-c1cc(Br)ccc1-2 [RO4938581]
- attenuation of subPCP-induced impairment, ED discrimination of the AST (Long-Evans rats [2]): significantly attenuated
- attenuation of subPCP-induced impairment, EDR discrimination of the AST (Long-Evans rats [2]): significantly attenuated

SMILES: C[C@H](NC[C@H](O)CP(=O)(O)CC1CCCCC1)c1ccc(Cl)c(Cl)c1 [[^3H]CGP54626]
- GABAB receptors Bmax (GABAB receptor; treatment group PCP/Veh): 414 ± 33^a fmol/mg
- GABAB receptors Bmax (GABAB receptor; treatment group PCP/Vor): 342 ± 27^a,c fmol/mg
- GABAB receptors Bmax (GABAB receptor; treatment group Veh/Veh): 541 ± 38 fmol/mg
- GABAB receptors Bmax (GABAB receptor; treatment group Veh/Vor): 475 ± 34 fmol/mg
- GABAB receptors pKD ([3H]CGP54626) (GABAB receptor; treatment group PCP/Veh): 8.7 ± 0.08
- GABAB receptors pKD ([3H]CGP54626) (GABAB receptor; treatment group PCP/Vor): 8.7 ± 0.06
- GABAB receptors pKD ([3H]CGP54626) (GABAB receptor; treatment group Veh/Veh): 8.6 ± 0.04
- GABAB receptors pKD ([3H]CGP54626) (GABAB receptor; treatment group Veh/Vor): 8.6 ± 0.08

SMILES: NCc1cc(=O)[nH]o1 [[^3H]muscimol]
- GABAA receptors pKD ([3H]muscimol) (GABAA receptor [3]; treatment group PCP/Veh): 7.8 ± 0.03
- GABAA receptors pKD ([3H]muscimol) (GABAA receptor [3]; treatment group PCP/Vor): 7.6 ± 0.03^a,b,c
- GABAA receptors pKD ([3H]muscimol) (GABAA receptor [3]; treatment group Veh/Veh): 7.7 ± 0.03
- GABAA receptors pKD ([3H]muscimol) (GABAA receptor [3]; treatment group Veh/Vor): 7.8 ± 0.06

SMILES: CN(C)CCC[C@@]1(c2ccc(F)cc2)OCc2cc(C#N)ccc21 [escitalopram]
- Ki (sigma 1 receptors): ~100 nM
- trials to criterion vs vehicle/vehicle or PCP/vehicle, EDR discrimination (Long-Evans rats [4]; acute 0.5 mg/kg 1 h s.c.): did not differ
- trials to criterion vs PCP/vehicle, ED discrimination (Long-Evans rats [4]; acute 0.5 mg/kg 1 h s.c., p < 0.001): significant reductions

SMILES: COCCCC/C(=N\OCCN)c1ccc(C(F)(F)F)cc1 [fluvoxamine]
- SERT occupancy ED80 (SERT): ≈ 1.8 mg/kg
- effect on deficits in OR performance (mice): reversed deficits
- effect on subPCP-induced impairments in OR performance (mice; single supra-pharmacological dose 20 mg/kg): improved

SMILES: NC(=O)C[S+]([O-])C(c1ccccc1)c1ccccc1 (centres unmarked) [modafinil, Modafinil]
- reversal of subPCP-induced impairment, ED discrimination (trials to criterion) (Long-Evans rats [4]; [5]): significantly reversed
- reversal of subPCP-induced impairment, EDR discrimination (trials to criterion) (Long-Evans rats [4]; [5]): neither acute vortioxetine nor modafinil significantly reversed
- trials to criterion vs PCP/vehicle, ED discrimination (Long-Evans rats [4]; ondansetron/escitalopram study, 64 mg/kg 30 min p.o., p < 0.001): significant reductions
- trials to criterion vs vehicle/vehicle or PCP/vehicle, EDR discrimination (Long-Evans rats [4]; ondansetron/escitalopram study, 64 mg/kg 30 min p.o., p < 0.05): significantly fewer trials
- AST performance in subPCP-treated rats, ED (Long-Evans rats [4]; [6]): significantly improved performance
- AST performance in subPCP-treated rats, EDR (Long-Evans rats [4]; [6]): significantly improved performance

SMILES: Cc1nccn1CC1CCc2c(c3ccccc3n2C)C1=O (centres unmarked) [ondansetron]
- trials to criterion vs vehicle/vehicle or PCP/vehicle, EDR discrimination (Long-Evans rats [4]; acute 1.6 mg/kg 1 h s.c.): did not differ
- trials to criterion vs PCP/vehicle, ED discrimination (Long-Evans rats [4]; acute 1.6 mg/kg 1 h s.c., p < 0.05): significant reductions

SMILES: Fc1ccc([C@@H]2CCNC[C@H]2COc2ccc3c(c2)OCO3)cc1 [paroxetine]
- effect on deficits in OR performance (mice): but not paroxetine reversed deficits
- effect on subPCP-induced impairments in OR performance (mice; single supra-pharmacological dose 10 mg/kg): improved

Reference: publication PMC5845537 (Frontiers in Pharmacology, 2018)
